In patent US20030171329A1, “Stable compositions comprising tezacitabine” (priority 2002, published 2003):

How the values were obtained:
[1] = Effects of pH and storage temperature on stability of FMdC solutions (Example 1, HPLC); type: physicochemical; conditions: for FMdC content: 1 mg/mL
Procedure: In this example the effects of pH and storage temperature on the stability of tezacitabine (FMdC) solutions was evaluated. FMdC solutions were made up at 1 mg/mL in aqueous sodium phosphate buffers at pH 1, 3, 5, 7 and 9, then filled in sealed glass ampoules and placed at 5°, 25°, and 45° C. FMdC content was assessed at various times using an HPLC method. The column was a PACK ODS column (YMC, Inc, Wilmington, Del.) with a mobile phase of 55/40/5 (v/v/v) 0.086M NaH2PO4 (pH 7)/0.05M 1-pentanesulfonic acid sodium salt/acetonitrile. Detection was by UV at 268 nm. Flow rate was 1.5 mL/min and injection volume was 10 μL.

[2] = Degradation products in HPLC chromatograms of degraded samples; type: physicochemical
Description: The major degradation product of tezacitabine seen in HPLC chromatograms of degraded samples is cytosine. Based on this, but without limitation to any specific theory, the mechanism of degradation is believed to involve hydrolysis of the glycosidic bond between the […] ring and the sugar ring. This hydrolysis reaction is believed to occur rapidly at low pH but much less rapidly at high pH. The liberated sugar moiety is believed subsequently to undergo rapid degradation to a spectrum of products, one or more of which are highly acidic as well as being colored. The cytosine may also further degrade to acid-producing and/or color-producing species. The degradation, therefore, has a propensity to become autocatalytic, as the liberated acid species would tend to lower the pH, thus accelerating the degradation of previously undegraded tezacitabine molecules.
Degradation of tezacitabine can readily be monitored by the use of high pressure liquid chromatography (HPLC) methods which separate the drug from its degradation products and quantitate the amount of intact drug remaining in the solution. Typically such studies are performed by filling aliquots of various tezacitabine solutions into appropriate containers (e.g., stoppered glass vials or sealed ampoules) and storing these samples for various periods of time under various storage conditions. […]

Nc1ccn([C@@H]2O[C@H](CO)[C@@H](O)/C2=C\F)c(=O)n1 [FMdC, (E)-2′-deoxy-2′-(fluoromethylene)cytidine]
FMdC content ([1]; sodium phosphate pH 1, 5° C., 0 days): 100.0 % of initial
FMdC content ([1]; sodium phosphate pH 1, 5° C., 1 day): 93.2 % of initial
FMdC content ([1]; sodium phosphate pH 1, 5° C., 14 days): 70.0 % of initial
FMdC content ([1]; sodium phosphate pH 1, 5° C., 29 days): 47.1 % of initial
FMdC content ([1]; sodium phosphate pH 1, 25° C., 0 days): 100.0 % of initial
FMdC content ([1]; sodium phosphate pH 1, 25° C., 1 day): 45.7 % of initial
FMdC content ([1]; sodium phosphate pH 1, 25° C., 7 days): 4.5 % of initial
FMdC content ([1]; sodium phosphate pH 1, 45° C., 0 days): 100.0 % of initial
FMdC content ([1]; sodium phosphate pH 1, 45° C., 1 day): 3.9 % of initial
FMdC content ([1]; sodium phosphate pH 3, 5° C., 0 days): 100.0 % of initial
FMdC content ([1]; sodium phosphate pH 3, 5° C., 1 day): 89.4 % of initial
FMdC content ([1]; sodium phosphate pH 3, 5° C., 14 days): 73.3 % of initial
FMdC content ([1]; sodium phosphate pH 3, 5° C., 29 days): 51.7 % of initial
FMdC content ([1]; sodium phosphate pH 3, 25° C., 0 days): 100.0 % of initial
FMdC content ([1]; sodium phosphate pH 3, 25° C., 1 day): 50.5 % of initial
FMdC content ([1]; sodium phosphate pH 3, 25° C., 7 days): 4.7 % of initial
FMdC content ([1]; sodium phosphate pH 3, 45° C., 0 days): 100.0 % of initial
FMdC content ([1]; sodium phosphate pH 3, 45° C., 1 day): 4.4 % of initial
FMdC content ([1]; sodium phosphate pH 5, 5° C., 0 days): 100.0 % of initial
FMdC content ([1]; sodium phosphate pH 5, 5° C., 7 days): 95.8 % of initial
FMdC content ([1]; sodium phosphate pH 5, 5° C., 14 days): 98.2 % of initial
FMdC content ([1]; sodium phosphate pH 5, 5° C., 29 days): 93.5 % of initial
FMdC content ([1]; sodium phosphate pH 5, 25° C., 0 days): 100.0 % of initial
FMdC content ([1]; sodium phosphate pH 5, 25° C., 7 days): 73.0 % of initial
FMdC content ([1]; sodium phosphate pH 5, 25° C., 14 days): 56.3 % of initial
FMdC content ([1]; sodium phosphate pH 5, 25° C., 29 days): 28.6 % of initial
FMdC content ([1]; sodium phosphate pH 5, 45° C., 0 days): 100.0 % of initial
FMdC content ([1]; sodium phosphate pH 5, 45° C., 7 days): 2.5 % of initial
FMdC content ([1]; sodium phosphate pH 7, 5° C., 0 days): 100.0 % of initial
FMdC content ([1]; sodium phosphate pH 7, 5° C., 7 days): 100.8 % of initial
FMdC content ([1]; sodium phosphate pH 7, 5° C., 14 days): 100.6 % of initial
FMdC content ([1]; sodium phosphate pH 7, 5° C., 29 days): 99.8 % of initial
FMdC content ([1]; sodium phosphate pH 7, 25° C., 0 days): 100.0 % of initial
FMdC content ([1]; sodium phosphate pH 7, 25° C., 7 days): 100.4 % of initial
FMdC content ([1]; sodium phosphate pH 7, 25° C., 14 days): 99.4 % of initial
FMdC content ([1]; sodium phosphate pH 7, 25° C., 29 days): 98.8 % of initial
FMdC content ([1]; sodium phosphate pH 7, 45° C., 0 days): 100.0 % of initial
FMdC content ([1]; sodium phosphate pH 7, 45° C., 7 days): 96.5 % of initial
FMdC content ([1]; sodium phosphate pH 7, 45° C., 14 days): 92.0 % of initial
FMdC content ([1]; sodium phosphate pH 7, 45° C., 29 days): 82.3 % of initial
FMdC content ([1]; sodium phosphate pH 9, 5° C., 0 days): 100.0 % of initial
FMdC content ([1]; sodium phosphate pH 9, 5° C., 7 days): 100.4 % of initial
FMdC content ([1]; sodium phosphate pH 9, 5° C., 14 days): 100.8 % of initial
FMdC content ([1]; sodium phosphate pH 9, 5° C., 29 days): 100.4 % of initial
FMdC content ([1]; sodium phosphate pH 9, 25° C., 0 days): 100.0 % of initial
FMdC content ([1]; sodium phosphate pH 9, 25° C., 7 days): 100.5 % of initial
FMdC content ([1]; sodium phosphate pH 9, 25° C., 14 days): 99.4 % of initial
FMdC content ([1]; sodium phosphate pH 9, 25° C., 29 days): 100.4 % of initial
FMdC content ([1]; sodium phosphate pH 9, 45° C., 0 days): 100.0 % of initial
FMdC content ([1]; sodium phosphate pH 9, 45° C., 7 days): 100.1 % of initial
FMdC content ([1]; sodium phosphate pH 9, 45° C., 14 days): 98.7 % of initial
FMdC content ([1]; sodium phosphate pH 9, 45° C., 29 days): 96.5 % of initial
stability in words ([1]; low pH (pH 1 and 3), even under refrigeration): very unstable
stability in words ([1]; pH 9, compared with pH 1 to 7): most stable
major degradation product [2]: cytosine
